From patent US20190375842A1, “CHECK POINT INHIBITION IN ORGAN FIBROSIS” (VANDERBILT UNIVERSITY, priority 2018, published 2019)

Test system: human lung fibroblasts/fibrocytes (HLF) co-cultured with sarcoidosis CD4+ T cells
Test: CD4+ T cell and human lung fibroblast (HLF) co-culture, collagen I production by flow cytometry
Type: cell-based
Settings: after exposure to STATTIC
Experimental: The detection of increased collagen-1 production following co-culture of sarcoidosis PD-1+CD4+ cells supported an investigation of the effects of PD-1 pathway blockade on HLF collagen I production. Purified sarcoidosis CD4+ T cells at a final concentration of 2×10^6/mL were cultured overnight in the presence of α-PD-1, α-PD-L1 and α-PD-L2. HLFs were added the following day at a 1:10 ratio (HLF:T cell). […] Similar results were also observed for collagen I producing fibrocytes (CD45^+) that were cultured in the presence of sarcoidosis CD4+ T cells. There was a significant decline in collagen I production of 22% following PD-1 pathway blockade (p=0.0002) (FIG. 7E). Once again, these differences were only observed when HLF were cultured with sorted CD4+ T cells from sarcoidosis patients that had high baseline PD-1 expression on their CD4+ T cells (p=0.0002) (FIG. 7F) but not from patients with low PD-1 (p=0.10) (FIG. 7G).
LN2 frozen PBMC were thawed and readied for CD4+ T cell purification as aforementioned. 4-5×10^5 CD4+ T cells were plated on a 96-well plate at a final concentration of 2×10^6/mL in RPMI 1640-supplemented medium and then allowed to rest at 37° C. in 5% atmospheric CO2 for 2 hours prior to PD-1 pathway blockade or STATS inhibition using STATTIC. […]

SMILES: O=[N+]([O-])c1ccc2c(c1)S(=O)(=O)C=C2 [STATTIC]
- collagen 1 production by fibrocytes (sarcoidosis PD-1+CD4+ T cells co-cultured with fibrocytes): significant reduction
- collagen 1 production by fibroblasts (sarcoidosis PD-1+CD4+ T cells co-cultured with human lung fibroblasts): significant reduction
